According to patent US11807625B2, “Capsid inhibitors for the prevention of HIV” (Gilead Sciences, Inc., priority 2019, dated 2023):
Like-named read-outs stand apart in the source and are kept apart here.

Experiment: PK of compound of Formula (Ia) after single subcutaneous dose of solution formulations in Wistar Han rats
Assay type: in vivo
Settings: male, Wistar Han, rat, plasma, sc, 50 mg/kg; for concentration at 2688 h / concentration at 3024 h / concentration at 3360 h / concentration at 3696 h / concentration at 4032 h / concentration at 4704 h: Wistar Han rats, SC 50 mg/kg, 500 mg/mL solution X (5.00% ethanol, 1.91% poloxamer 188); for AUC(0-t): male Wistar Han rats, single SC 50 mg/kg, mean ± SD
Procedure: Formulations containing the compound of Formula (Ia), or a pharmaceutically acceptable salt thereof, were prepared as solutions and optionally administered subcutaneously or intramuscularly to rats, rabbits, and/or dogs.
(§1) A solution of about 400 mg/mL of the compound of Formula (Ia) having 19.14 w/w % water, 40.66 w/w % PEG 300, 35.20 w/w % of a sodium salt of a compound of Formula (Ia), and 5.00% ethanol was prepared. The solution was administered subcutaneously to male Wistar Han rats at a dose level of about 50 mg/kg and dose volume of 0.125 mL/kg and the pharmacokinetic (PK) profile was determined.
as §1, with “500” for “400”, “16.64” for “19.14”, “35.36” for “40.66”, “43.00” for “35.20”, “0.1” for “0.125”
(§2) A solution of about 400 mg/mL of the compound of Formula (Ia) having 17.00 w/w % water, 36.40 w/w % PEG 300, 35.20 w/w % of a sodium salt of a compound of Formula (Ia), 5.00 w/w % ethanol, and 6.40 w/w % poloxamer 188 was prepared. The solution was administered subcutaneously to male beagle dogs at a dose level of about 12 mg/kg and male Wistar Han rats at a dose level of about 50 mg/kg. The pharmacokinetic profiles were determined, and the results for dogs are summarized in Table and Table, while the results for rats are summarized in Table and Table below.
as §2, with “500” for “400”, “14.06” for “17.00”, “30.12” for “36.40”
A solution of about 300 mg/mL of the compound of Formula (Ia) having 23.33 w/w % water, 48.99 w/w % PEG 300, 26.47 w/w % of a sodium salt of a compound of Formula (Ia), and 1.21 w/w % poloxamer 188 was prepared. The solution was administered subcutaneously to male beagle dogs at a dose level of about 6 mg/kg and male Wistar Han rats at a dose level of about 50 mg/kg. The pharmacokinetic profiles were determined, and the results for dogs are summarized in Table and Table, while the results for rats are summarized in Table and Table below.
as §2, with “18.80” for “17.00”, “40.25” for “36.40”, “34.38” for “35.20”, “1.57” for “6.40”
as §2, with “500” for “400”, “16.29” for “17.00”, “34.88” for “36.40”, “41.92” for “35.20”, “1.91” for “6.40”
A solution of about 400 mg/mL of the compound of Formula (Ia) having 20.90 w/w % water, 44.72 w/w % PEG 300, and 34.38 w/w % of a sodium salt of a compound of Formula (Ia) was prepared. […]

concentration at 2688 h (Mean n = 3): 168 nM | concentration at 2688 h (animals #1-#3): 141 nM | concentration at 3024 h (Mean n = 3): 161 nM | concentration at 3024 h (animals #1-#3): 127 nM | concentration at 3360 h (Mean n = 3): 157 nM | concentration at 3360 h (animals #1-#3): 122 nM | concentration at 3696 h (Mean n = 3): 134 nM | concentration at 3696 h (animals #1-#3): 121 nM | concentration at 4032 h (Mean n = 3): 135 nM | concentration at 4032 h (animals #1-#3): 97.5 nM | concentration at 4704 h (Mean n = 3): 88.8 nM | concentration at 4704 h (animals #1-#3): 79.4 nM | AUC(0-t) (400 mg/mL solution AA (6.25% poloxamer 188), n = 4, read-out: AUC0-24 h): 3.44 ± 0.69 µM·h | AUC(0-t) (400 mg/mL solution AA (6.25% poloxamer 188), n = 4, read-out: AUC0-168 h): 32.4 ± 7.6 µM·h | AUC(0-t) (400 mg/mL solution AA (6.25% poloxamer 188), n = 4, read-out: AUC0-336 h): 55.2 ± 16.3 µM·h | AUC(0-t) (400 mg/mL solution AA (6.25% poloxamer 188), n = 4, read-out: AUC0-672 h): 98 ± 30.4 µM·h | AUC(0-t) (400 mg/mL solution AA (6.25% poloxamer 188), n = 4, read-out: AUC0-1008 h): 136 ± 36 µM·h | AUC(0-t) (400 mg/mL solution AA (6.25% poloxamer 188), n = 4, read-out: AUC0-1344 h): 167 ± 41 µM·h | AUC(0-t) (400 mg/mL solution AA (6.25% poloxamer 188), n = 4, read-out: AUC0-2352 h): 190 ± 45 µM·h | AUC(0-t) (400 mg/mL solution AA (6.25% poloxamer 188), n = 4, read-out: AUC0-3024 h): 240 ± 59 µM·h | AUC(0-t) (400 mg/mL solution AA (6.25% poloxamer 188), n = 4, read-out: AUC0-3696 h): 289 ± 76 µM·h | AUC(0-t) (400 mg/mL solution W (5.00% ethanol, 1.57% poloxamer 188), n = 3, read-out: AUC0-24 h): 2 ± 0.58 µM·h | AUC(0-t) (400 mg/mL solution W (5.00% ethanol, 1.57% poloxamer 188), n = 3, read-out: AUC0-168 h): 21.6 ± 4.5 µM·h | AUC(0-t) (400 mg/mL solution W (5.00% ethanol, 1.57% poloxamer 188), n = 3, read-out: AUC0-336 h): 45.9 ± 11.9 µM·h | AUC(0-t) (400 mg/mL solution W (5.00% ethanol, 1.57% poloxamer 188), n = 3, read-out: AUC0-672 h): 124 ± 32 µM·h | AUC(0-t) (400 mg/mL solution W (5.00% ethanol, 1.57% poloxamer 188), n = 3, read-out: AUC0-1008 h): 215 ± 45 µM·h | AUC(0-t) (400 mg/mL solution W (5.00% ethanol, 1.57% poloxamer 188), n = 3, read-out: AUC0-1344 h): 306 ± 65 µM·h | AUC(0-t) (400 mg/mL solution W (5.00% ethanol, 1.57% poloxamer 188), n = 3, read-out: AUC0-1680 h): 401 ± 86 µM·h | AUC(0-t) (400 mg/mL solution W (5.00% ethanol, 1.57% poloxamer 188), n = 3, read-out: AUC0-2352 h): 540 ± 114 µM·h | AUC(0-t) (400 mg/mL solution W (5.00% ethanol, 1.57% poloxamer 188), n = 3, read-out: AUC0-3024 h): 647 ± 126 µM·h | AUC(0-t) (400 mg/mL solution W (5.00% ethanol, 1.57% poloxamer 188), n = 3, read-out: AUC0-3696 h): 730 ± 131 µM·h | AUC(0-t) (400 mg/mL solution W (5.00% ethanol, 1.57% poloxamer 188), n = 3, read-out: AUC0-4704 h): 765 ± 131 µM·h | AUC(0-t) (400 mg/mL solution Y (water, PEG 300), n = 4, read-out: AUC0-24 h): 1.66 ± 0.32 µM·h | AUC(0-t) (400 mg/mL solution Y (water, PEG 300), n = 4, read-out: AUC0-168 h): 15.7 ± 4.7 µM·h
Compound: CC(C)(C#Cc1ccc(-c2ccc(Cl)c3c(NS(C)(=O)=O)nn(CC(F)(F)F)c23)c([C@H](Cc2cc(F)cc(F)c2)NC(=O)Cn2nc(C(F)(F)F)c3c2C(F)(F)[C@@H]2C[C@H]32)n1)S(C)(=O)=O [compound of Formula (Ia)]
